Test results taken from EPA's ToxRefDB 2.

Assays:
[1] = system: rat; details: Subchronic oral toxicity in rodents, other, Feed, dose end: 13 week, group: systemic
[2] = system: rat; details: Subchronic oral toxicity in rodents, sprague dawley, Gavage/Intubation, dose end: 13 week, group: systemic
[3] = system: mouse; details: Subchronic dermal toxicity, cd1, Topical, dose end: 49 day, group: systemic
[4] = system: rat; details: Prenatal developmental toxicity study, sprague dawley, Dermal, Topical, dose end: 15 GD, group: maternal
[5] = system: rat; details: Sub-acute repeat dose toxicity, fischer, Oral, Water, dose end: 14 day, group: systemic
[6] = system: rat; details: Prenatal developmental toxicity study, sprague dawley, Oral, Gavage/Intubation, dose end: 15 GD
[7] = system: mouse; details: Combined chronic toxicity/carcinogenicity; b6c3f1; Oral; Water; dose end: 105 week; group: systemic; systemic / in life observation / body weight / body weight
[8] = system: rat; details: Subchronic oral toxicity in rodents, fischer, Water, dose end: 14 week, group: systemic
[9] = system: mouse; details: Sub-acute repeat dose toxicity, b6c3f1, Oral, Water, dose end: 14 day, group: systemic
[10] = system: rat; details: Combined chronic toxicity/carcinogenicity, fischer, Oral, Water, dose end: 105 week, group: systemic
[11] = system: mouse; details: Subchronic oral toxicity in rodents, b6c3f1, Water, dose end: 13 week
[12] = system: rat; details: Sub-acute repeat dose toxicity, sprague dawley, Oral, Gavage/Intubation, dose end: 28 day, group: systemic
[13] = system: rat; details: Combined chronic toxicity/carcinogenicity; sprague dawley; Oral; Feed; dose end: 104 week; group: systemic; systemic / pathology microscopic / lung / foam cell aggregation + systemic / hematology / erythrocyte (rbc) count differential / erythrocyte…
[14] = system: rat; details: Multigenerational reproductive toxicity study, sprague dawley, Oral, Feed, dose end: 2 generation
[15] = system: mouse; details: Subchronic oral toxicity in rodents, Feed, dose end: 28 day, group: systemic
[16] = system: mouse; details: Subchronic oral toxicity in rodents, cd1, Feed, dose end: 13 week, group: systemic, systemic / clinical chemistry / alkaline phosphatase (alp/alk) / alkaline phosphatase (alp/alk) + systemic / pathology microscopic / liver…
[17] = system: rabbit; details: Prenatal developmental toxicity study, new zealand white, Oral, Gavage/Intubation, dose end: 18 GD, group: maternal
[18] = systemic / hematology / erythrocyte (rbc) count differential / erythrocyte (rbc) + systemic / in life observation / body weight / body …
[19] = systemic / urinalysis / ketones / ketones
[20] = systemic / organ weight / kidney / relative to body weight + systemic / organ weight / liver / absolute + systemic / organ weight / liver / …
[21] = systemic / in life observation / clinical signs / erythema + systemic / pathology microscopic / skin / edema
[22] = systemic / in life observation / clinical signs / erythema + systemic / pathology microscopic / skin / edema + systemic / in life …
[23] = systemic / in life observation / body weight / body weight + systemic / in life observation / clinical signs / [other] + systemic / in life …
[24] = systemic / in life observation / body weight / body weight + systemic / in life observation / clinical signs / red or crusty deposits around…
[25] = group: developmental, systemic / in life observation / body weight / fetal weight
[26] = group: maternal, systemic / in life observation / clinical signs / ataxia + systemic / in life observation / clinical signs / lethargy + systemic / in life …
[27] = systemic / clinical chemistry / bile acids / bile acids + systemic / in life observation / body weight / body weight + systemic / in life …
[28] = systemic / in life observation / body weight / body weight + systemic / in life observation / body weight / body weight gain + systemic / …
[29] = systemic / in life observation / body weight / body weight gain + systemic / organ weight / liver / absolute + systemic / organ weight / …
[30] = systemic / pathology microscopic / kidney / hyperplasia + systemic / pathology microscopic / kidney / nephropathy + systemic / in life …
[31] = group: maternal, reproductive / reproductive performance / estrous cycle / length
[32] = group: systemic, systemic / in life observation / clinical signs / dehydration + systemic / in life observation / clinical signs / feces, discoloration + …
[33] = group: systemic, systemic / in life observation / water consumption / water consumption
[34] = systemic / clinical chemistry / phosphorus / phosphorus + systemic / clinical chemistry / bilirubin / total bilirubin + systemic / pathology…
[35] = systemic / pathology gross / uterus / fluid contents
[36] = group: maternal, systemic / in life observation / body weight / body weight gain
[37] = group: offspring, developmental / offspring survival late / viability index / viability index + systemic / in life observation / body weight / offspring (pup…
[38] = group: offspring, systemic / in life observation / body weight / offspring (pup) weight
[39] = group: parental, systemic / in life observation / body weight / body weight + systemic / in life observation / body weight / body weight gain
[40] = group: parental, systemic / in life observation / body weight / body weight gain
[41] = systemic / pathology microscopic / liver / infiltration cellular
[42] = reproductive / offspring survival early / live fetuses / live fetuses

Compound: CC(=O)CCc1ccc(O)cc1 [4-(4-Hydroxyphenyl)butan-2-one]
- LOAEL [1, 18]: > 678 mg/kg/day
- NOAEL [1, 18]: ≥ 678 mg/kg/day
- LEL [1, 19]: 65 mg/kg/day
- NEL [1, 19]: < 65 mg/kg/day

Compound: Cc1cc(O)cc(C)c1Cl [4-Chloro-3,5-dimethylphenol]
- LEL ([2]; systemic / in life observation / body weight / body weight gain + systemic / in life observation / clinical signs / salivation + systemic / …): 1250 mg/kg/day
- NEL ([2]; systemic / in life observation / clinical signs / salivation): 25 mg/kg/day
- LOAEL [2, 20]: 2500 mg/kg/day
- NOAEL [2, 20]: 1250 mg/kg/day
- LOAEL [3, 21]: 213 mg/kg/day
- NOAEL [3, 21]: < 213 mg/kg/day
- LEL [3, 22]: 213 mg/kg/day
- NEL [3, 22]: < 213 mg/kg/day

Compound: c1ccc2c(c1)Oc1ccccc1[As]2O[As]1c2ccccc2Oc2ccccc21 [10,10'-Oxybisphenoxarsine]
- LOAEL [4, 23]: > 30 mg/kg/day
- NOAEL [4, 23]: ≥ 30 mg/kg/day
- LEL [4, 24]: 0.3 mg/kg/day
- NEL [4, 24]: < 0.3 mg/kg/day

Compound: CC(CO)OC(C)CO.CC(O)COCC(C)O (centres undefined) [Dipropylene glycol]
- LOAEL ([5]; systemic / in life observation / body weight / body weight + systemic / in life observation / body weight / body weight gain): 11100 mg/kg/day
- NOAEL ([5]; systemic / in life observation / body weight / body weight + systemic / in life observation / body weight / body weight gain + systemic / in…): 5420 mg/kg/day
- LEL ([5]; systemic / organ weight / liver / absolute + systemic / organ weight / liver / relative to body weight): 2650 mg/kg/day
- NEL ([5]; systemic / organ weight / liver / absolute + systemic / organ weight / liver / relative to body weight + systemic / in life observation / …): 1450 mg/kg/day
- LEL [6, 25]: 5000 mg/kg/day
- LOAEL [6, 25]: > 5000 mg/kg/day
- NEL [6, 25]: 2000 mg/kg/day
- NOAEL [6, 25]: ≥ 5000 mg/kg/day
- LEL [6, 26]: 2000 mg/kg/day
- LOAEL [6, 26]: > 5000 mg/kg/day
- NEL [6, 26]: 800 mg/kg/day
- NOAEL [6, 26]: ≥ 5000 mg/kg/day
- LEL [7]: 1950 mg/kg/day
- LOAEL [7]: 1950 mg/kg/day
- NEL [7]: 1040 mg/kg/day
- NOAEL [7]: 1040 mg/kg/day
- LEL [8, 27]: 425 mg/kg/day
- NEL [8, 27]: < 425 mg/kg/day
- LOAEL [8, 28]: 8950 mg/kg/day
- NOAEL [8, 28]: 3340 mg/kg/day
- LOAEL ([9]; systemic / in life observation / body weight / body weight gain): 10700 mg/kg/day
- LEL [9, 29]: 10700 mg/kg/day
- NOAEL [9, 29]: 5330 mg/kg/day
- NEL ([9]; systemic / in life observation / clinical signs / abnormal gait + systemic / in life observation / clinical signs / emaciation + systemic / …): 5330 mg/kg/day
- LOAEL ([10]; systemic / pathology microscopic / kidney / hyperplasia + systemic / pathology microscopic / kidney / nephropathy): 470 mg/kg/day
- NEL [10, 30]: 115 mg/kg/day
- NOAEL [10, 30]: 115 mg/kg/day
- LEL ([10]; systemic / pathology microscopic / kidney / hyperplasia + systemic / pathology microscopic / kidney / nephropathy + systemic / pathology …): 470 mg/kg/day
- LEL [11, 31]: 14700 mg/kg/day
- LOAEL [11, 31]: > 14700 mg/kg/day
- NEL [11, 31]: 7430 mg/kg/day
- NOAEL [11, 31]: ≥ 14700 mg/kg/day
- LOAEL [11, 32]: > 11000 mg/kg/day
- NOAEL [11, 32]: ≥ 11000 mg/kg/day
- LEL [11, 33]: 715 mg/kg/day
- NEL [11, 33]: < 715 mg/kg/day

Compound: O=C([O-])CNCO.[Na+] [Glycine, N-(hydroxymethyl)-, monosodium salt]
- LOAEL [12, 34]: 640 mg/kg/day
- NOAEL [12, 34]: 160 mg/kg/day
- LEL [12, 35]: 40 mg/kg/day
- NEL [12, 35]: < 40 mg/kg/day

Compound: Oc1cc(Cl)ccc1Oc1ccc(Cl)cc1Cl [Triclosan]
- LEL [13]: 15 mg/kg/day
- LOAEL [13]: 15 mg/kg/day
- NEL [13]: < 15 mg/kg/day
- NOAEL [13]: < 15 mg/kg/day
- LEL [14, 36]: 150 mg/kg/day
- LOAEL [14, 36]: > 150 mg/kg/day
- NEL [14, 36]: 50 mg/kg/day
- NOAEL [14, 36]: ≥ 150 mg/kg/day
- LOAEL [14, 37]: 150 mg/kg/day
- NOAEL [14, 37]: 50 mg/kg/day
- LEL [14, 38]: 15 mg/kg/day
- NEL [14, 38]: < 15 mg/kg/day
- LOAEL [14, 39]: 150 mg/kg/day
- NOAEL [14, 39]: 50 mg/kg/day
- LEL [14, 40]: 15 mg/kg/day
- NEL [14, 40]: < 15 mg/kg/day
- LOAEL ([15]; systemic / clinical chemistry / alkaline phosphatase (alp/alk) / alkaline phosphatase (alp/alk) + systemic / clinical chemistry / alanine …): 136 mg/kg/day
- LEL [15, 41]: 6.48 mg/kg/day
- NEL [15, 41]: < 6.48 mg/kg/day
- NOAEL ([15]; systemic / pathology microscopic / liver / infiltration cellular + systemic / clinical chemistry / alkaline phosphatase (alp/alk) / alkaline…): 6.48 mg/kg/day
- LEL [16]: 25 mg/kg/day
- LOAEL [16]: 25 mg/kg/day
- NEL [16]: < 25 mg/kg/day
- NOAEL [16]: < 25 mg/kg/day
- LEL [17, 42]: 15 mg/kg/day
- NEL [17, 42]: < 15 mg/kg/day
- LOAEL ([17]; systemic / in life observation / body weight / body weight + systemic / in life observation / food consumption / food consumption): 150 mg/kg/day
- NOAEL ([17]; systemic / in life observation / body weight / body weight + systemic / in life observation / food consumption / food consumption + …): 50 mg/kg/day
